The text below walks through data of US10517889B2, “Modulators of SMAD7 expression” (Ionis Pharmaceuticals, Inc., priority 2017, dated 2019).

Usually % Inhibition stands for the percentage by which the read-out fell short of the control. The low end stands for little suppression, the high end for strong suppression.

Strand notation (5' to 3'): a small letter for the sugar, then the base; units joined by * are phosphorothioate-linked, units joined directly phosphodiester-linked; [ ] holds rarer units or linkages, { } end groups; capitals alone tell only the bases. k = constrained ethyl (cEt); [5mC] = 5-methylcytosine; d = 2'-deoxy (DNA)

The subject of this data set is human SMAD7 mRNA. Description: Antisense inhibition of human SMAD7 mRNA expression in Hep3B cells by 3-10-3 cEt gapmers, 10,000 nM, electroporation (Example 2). Format: cell-based. Conditions: Hep3B cells, electroporation with 10,000 nM antisense oligonucleotide, approximately 24 hours, primer probe set RTS5062, relative to untreated control cells. In short, it runs like this:
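Percent inhibition of SMAD7 mRNA, relative to untreated cells, after ~24 h exposure of electroporated Hep3B cells to 10,000 nM cEt gapmer; levels by qRT-PCR, corrected for total RNA.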
Consider “799170 (antisense kT*k[5mC]*kA*dT*dT*dG*dA*dG*d[5mC]*dT*dA*dA*dG*kA*kA*k[5mC]) [compound 799170]”, for which the “% inhibition of SMAD7 mRNA expression” value is 17%.

For “799171 (antisense kT*kG*k[5mC]*dT*d[5mC]*dA*dT*dT*dG*dA*dG*d[5mC]*dT*kA*kA*kG) [compound 799171]”, the “% inhibition of SMAD7 mRNA expression” value turned out to be 30%.

Regarding “799172 (antisense kA*kA*k[5mC]*dA*dT*dG*d[5mC]*dT*d[5mC]*dA*dT*dT*dG*kA*kG*k[5mC]) [compound 799172]”, the “% inhibition of SMAD7 mRNA expression” value was determined as 4%.

With “799173 (antisense k[5mC]*kT*kA*dA*dA*d[5mC]*dA*dT*dG*d[5mC]*dT*d[5mC]*dA*kT*kT*kG) [compound 799173]”, the “% Inhibition” value is 18%.

For “799174 (antisense kA*kG*kT*d[5mC]*dT*dA*dA*dA*d[5mC]*dA*dT*dG*d[5mC]*kT*k[5mC]*kA) [compound 799174]”, the “% Inhibition” value was found to be 42%.

“799175 (antisense kT*kA*kA*dA*dG*dT*d[5mC]*dT*dA*dA*dA*d[5mC]*dA*kT*kG*k[5mC]) [compound 799175]”: the “% Inhibition” value is listed as 0%.

Turning to “799176 (antisense kT*kG*kT*dT*dA*dA*dA*dG*dT*d[5mC]*dT*dA*dA*kA*k[5mC]*kA) [compound 799176]”, the “% Inhibition” value amounted to 0%.

With “799177 (antisense kT*kT*kA*dT*dG*dT*dT*dA*dA*dA*dG*dT*d[5mC]*kT*kA*kA) [compound 799177]”, the “% Inhibition” value is reported as 0%.

For “799178 (antisense kA*kG*k[5mC]*dT*dT*dA*dT*dG*dT*dT*dA*dA*dA*kG*kT*k[5mC]) [compound 799178]”, the “% Inhibition” value is reported as 34%.

Regarding “799179 (antisense kA*kA*kT*dA*dG*d[5mC]*dT*dT*dA*dT*dG*dT*dT*kA*kA*kA) [compound 799179]”, the “% Inhibition” value came to 0%.

As for “799180 (antisense kG*kA*kA*dA*dA*dA*dT*dA*dG*d[5mC]*dT*dT*dA*kT*kG*kT) [compound 799180]”, the “% Inhibition” value was determined as 20%.

On to “799181 (antisense kG*kT*kT*dA*dG*dA*dA*dA*dA*dA*dT*dA*dG*k[5mC]*kT*kT) [compound 799181]”, for which the “% Inhibition” value amounted to 37%.

With “799182 (antisense kG*kT*kA*dG*dT*dT*dA*dG*dA*dA*dA*dA*dA*kT*kA*kG) [compound 799182]”, the “% Inhibition” value turned out to be 20%.

“799183 (antisense k[5mC]*kT*kT*dT*dG*dT*dA*dG*dT*dT*dA*dG*dA*kA*kA*kA) [compound 799183]”: the “% inhibition of SMAD7 mRNA expression” value was determined as 0%.

As to “799185 (antisense kT*kT*kA*dA*dA*d[5mC]*d[5mC]*dT*dT*dT*dG*dT*dA*kG*kT*kT) [compound 799185]”, the “% inhibition of SMAD7 mRNA expression” value is listed as 0%.

As for “799186 (antisense k[5mC]*kT*kT*dG*dT*dT*d[5mC]*dA*dT*dT*dT*dA*dA*kA*k[5mC]*k[5mC]) [compound 799186]”, the “% inhibition of SMAD7 mRNA expression” value came to 31%.

On to “799187 (antisense k[5mC]*kT*kT*d[5mC]*dT*d[5mC]*dT*dT*dG*dT*dT*d[5mC]*dA*kT*kT*kT) [compound 799187]”, for which the “% inhibition of SMAD7 mRNA expression” value is reported as 17%.

As to “799188 (antisense kT*kG*k[5mC]*dT*dT*d[5mC]*dT*d[5mC]*dT*dT*dG*dT*dT*k[5mC]*kA*kT) [compound 799188]”, the “% inhibition of SMAD7 mRNA expression” value was 43%.

In the case of “799189 (antisense kA*kA*kT*dG*d[5mC]*dT*dT*d[5mC]*dT*d[5mC]*dT*dT*dG*kT*kT*k[5mC]) [compound 799189]”, the “% inhibition of SMAD7 mRNA expression” value is given as 33%.

Regarding “799190 (antisense kA*kG*kA*dA*dT*dG*d[5mC]*dT*dT*d[5mC]*dT*d[5mC]*dT*kT*kG*kT) [compound 799190]”, the “% inhibition of SMAD7 mRNA expression” value stood at 61%.

As for “799191 (antisense kA*kT*kG*dA*dG*dA*dA*dT*dG*d[5mC]*dT*dT*d[5mC]*kT*k[5mC]*kT) [compound 799191]”, the “% Inhibition” value is 26%.

“799192 (antisense kT*kT*kT*d[5mC]*d[5mC]*dA*dA*dT*dG*dA*dG*dA*dA*kT*kG*k[5mC]) [compound 799192]”: the “% Inhibition” value stood at 60%.

On to “799193 (antisense kT*kA*kA*dA*dT*dT*dT*d[5mC]*d[5mC]*dA*dA*dT*dG*kA*kG*kA) [compound 799193]”, for which the “% Inhibition” value was found to be 43%.

As for “799194 (antisense kT*kG*k[5mC]*dT*dA*dA*dA*dT*dT*dT*d[5mC]*d[5mC]*dA*kA*kT*kG) [compound 799194]”, the “% Inhibition” value is 42%.

For the substance “799195 (antisense k[5mC]*kA*kA*dT*dG*d[5mC]*dT*dA*dA*dA*dT*dT*dT*k[5mC]*k[5mC]*kA) [compound 799195]”, the “% Inhibition” value amounted to 43%.

For the substance “799196 (antisense kG*k[5mC]*kA*d[5mC]*dT*dA*d[5mC]*dA*dA*dT*dG*d[5mC]*dT*kA*kA*kA) [compound 799196]”, the “% Inhibition” value is listed as 47%.

For “799197 (antisense k[5mC]*kT*k[5mC]*dA*dA*dA*dG*d[5mC]*dA*d[5mC]*dT*dA*d[5mC]*kA*kA*kT) [compound 799197]”, the “% inhibition of SMAD7 mRNA expression” value is given as 34%.

As to “799198 (antisense kG*kT*k[5mC]*d[5mC]*dT*dT*dT*d[5mC]*dT*d[5mC]*dT*d[5mC]*dT*k[5mC]*kA*kA) [compound 799198]”, the “% inhibition of SMAD7 mRNA expression” value came to 17%.

“799199 (antisense kG*kG*kA*dG*dT*d[5mC]*d[5mC]*dT*dT*dT*d[5mC]*dT*d[5mC]*kT*k[5mC]*kT) [compound 799199]”: the “% inhibition of SMAD7 mRNA expression” value was found to be 24%.

On to “799200 (antisense kT*k[5mC]*kA*dG*dG*dA*dG*dT*d[5mC]*d[5mC]*dT*dT*dT*k[5mC]*kT*k[5mC]) [compound 799200]”, for which the “% inhibition of SMAD7 mRNA expression” value is listed as 69%.

For “799201 (antisense kT*kT*kT*dT*d[5mC]*dA*dG*dG*dA*dG*dT*d[5mC]*d[5mC]*kT*kT*kT) [compound 799201]”, the “% inhibition of SMAD7 mRNA expression” value came out at 38%.

For “799202 (antisense kT*kT*kT*dT*dT*dT*dT*d[5mC]*dA*dG*dG*dA*dG*kT*k[5mC]*k[5mC]) [compound 799202]”, the “% inhibition of SMAD7 mRNA expression” value is reported as 33%.

Take “799203 (antisense kG*kG*kT*dT*dT*dT*dT*dT*dT*dT*d[5mC]*dA*dG*kG*kA*kG) [compound 799203]”: the “% inhibition of SMAD7 mRNA expression” value is 56%.

Take “799204 (antisense k[5mC]*kT*k[5mC]*dA*dG*dG*dT*dT*dT*dT*dT*dT*dT*kT*k[5mC]*kA) [compound 799204]”: the “% inhibition of SMAD7 mRNA expression” value was 36%.

As to “799205 (antisense kT*kA*kA*dA*dT*d[5mC]*dT*d[5mC]*dA*dG*dG*dT*dT*kT*kT*kT) [compound 799205]”, the “% inhibition of SMAD7 mRNA expression” value stood at 54%.

“799206 (kT*kA*kT*dA*dT*dT*dT*dA*d[5mC]*dA*dA*dG*dT*kA*kA*kT; antisense) [compound 799206]”: the “% Inhibition” value is listed as 0%.

Regarding “799207 (k[5mC]*kT*kT*dT*dA*dT*dA*dT*dT*dT*dA*d[5mC]*dA*kA*kG*kT; antisense) [compound 799207]”, the “% Inhibition” value was 0%.

Turning to “799208 (kT*kG*kA*dT*dG*d[5mC]*dT*dT*dA*dT*dA*dA*dA*kA*k[5mC]*kG; antisense) [compound 799208]”, the “% Inhibition” value worked out at 15%.

As for “799209 (kT*kA*kA*dT*dG*dA*dT*dG*d[5mC]*dT*dT*dA*dT*kA*kA*kA; antisense) [compound 799209]”, the “% Inhibition” value turned out to be 14%.

Take “799210 (kT*kA*kA*dA*dT*dA*dA*dT*dG*dA*dT*dG*d[5mC]*kT*kT*kA; antisense) [compound 799210]”: the “% Inhibition” value is on record as 10%.

On to “799211 (kA*k[5mC]*kA*dT*dA*dA*dA*dT*dA*dA*dT*dG*dA*kT*kG*k[5mC]; antisense) [compound 799211]”, for which the “% Inhibition” value was 0%.

For “799212 (kT*kT*kA*dT*dA*d[5mC]*dA*d[5mC]*dA*dT*dT*dG*d[5mC]*kA*k[5mC]*kA; antisense) [compound 799212]”, the “% Inhibition” value is listed as 35%.

With “799213 (kT*kG*kT*dT*dT*dA*dT*dA*d[5mC]*dA*d[5mC]*dA*dT*kT*kG*k[5mC]; antisense) [compound 799213]”, the “% inhibition of SMAD7 mRNA expression” value is listed as 42%.

For “799214 (kT*kT*k[5mC]*dT*dT*dG*dT*dT*dT*dA*dT*dA*d[5mC]*kA*k[5mC]*kA; antisense) [compound 799214]”, the “% inhibition of SMAD7 mRNA expression” value is 46%.

As to “799215 (kA*kG*k[5mC]*dA*dA*dA*dG*dT*dG*d[5mC]*dA*dT*d[5mC]*kT*kT*kT; antisense) [compound 799215]”, the “% inhibition of SMAD7 mRNA expression” value worked out at 0%.

“799216 (kT*kA*kT*dT*dA*dA*dA*dG*d[5mC]*dA*dA*dA*dG*kT*kG*k[5mC]; antisense) [compound 799216]”: the “% inhibition of SMAD7 mRNA expression” value was determined as 49%.

As for “799217 (kG*kT*kT*dA*dT*dT*dT*dG*d[5mC]*dA*dT*dT*dT*kA*kT*kA; antisense) [compound 799217]”, the “% inhibition of SMAD7 mRNA expression” value stood at 0%.

“799218 (k[5mC]*kA*kT*dT*dT*dG*dT*dT*dA*dT*dT*dT*dG*k[5mC]*kA*kT; antisense) [compound 799218]”: the “% inhibition of SMAD7 mRNA expression” value is 0%.

For the substance “799219 (kT*kG*kG*d[5mC]*dA*dT*dT*dT*dG*dT*dT*dA*dT*kT*kT*kG; antisense) [compound 799219]”, the “% Inhibition” value is given as 0%.

On to “799220 (kA*kA*kT*dT*dT*dG*dG*d[5mC]*dA*dT*dT*dT*dG*kT*kT*kA; antisense) [compound 799220]”, for which the “% Inhibition” value was found to be 0%.

Consider “799221 (kT*kT*kT*dA*dA*dT*dT*dT*dG*dG*d[5mC]*dA*dT*kT*kT*kG; antisense) [compound 799221]”, for which the “% Inhibition” value was 0%.

In the case of “799222 (k[5mC]*kT*kT*dT*dT*dT*dT*dA*dA*dT*dT*dT*dG*kG*k[5mC]*kA; antisense) [compound 799222]”, the “% Inhibition” value is reported as 0%.
